Results reported in patent publication US9695155B2, “Herbicidal substituted pyrimidinyloxy benzene compounds” (E. I. DU PONT DE NEMOURS AND COMPANY, priority 2013, dated 2017).

Legend:
Test in all cases: Test E postemergence
fall panicum = format: in vivo, Panicum dichotomiflorum
Description: (§1) Seeds of plant species selected from corn (Zea mays), soybean (Glycine max), velvetleaf (Abutilon theophrasti), lambsquarters (Chenopodium album), wild poinsettia (Euphorbia heterophylla), palmer pigweed (Amaranthus palmeri), waterhemp (common waterhemp, Amaranthus rudis), surinam grass (Brachiaria decumbens), large (Lg) crabgrass (Digitaria sanguinalis), Brazilian crabgrass (Digitaria horizontalis), fall panicum (Panicum dichotomiflorum), giant foxtail (Setaria faberii), green foxtail (Setaria viridis), goosegrass (Eleusine indica), johnsongrass (Sorghum halepense), ragweed (common ragweed, Ambrosia elatior), barnyardgrass (Echinochloa crus-galli), sandbur (southern sandbur, Cenchrus echinatus), arrowleaf sida (Sida rhombifolia), Italian ryegrass (Lolium multiflorum), dayflower (Virginia (VA) dayflower, Commelina virginica), field bindweed (Convolvulus arvensis), morningglory (Ipomoea coccinea), nightshade (eastern black nightshade, Solanum ptycanthum), kochia (Kochia scoparia), yellow nutsedge (Cyperus esculentus), cocklebur (common cocklebur, Xanthium strumarium), smartweed (ladysthumb smartweed, and hairy beggarticks (Bidens pilosa), were planted into a silt loam soil and treated preemergence with test chemicals formulated in a non-phytotoxic solvent mixture which included a surfactant.
(§2) At the same time, plants from these crop and weed species and also horseweed (Canada horseweed, Conyza canadensis), waterhemp_RES1, (ALS & Triazine resistant common waterhemp, Amaranthus rudis), and waterhemp_RES2, (ALS & HPPD resistant common waterhemp, Amaranthus rudis) were planted in pots containing Redi-Earth® planting medium (Scotts Company, 14111 Scottslawn Road, Marysville, Ohio 43041) comprising spaghnum peat moss, vermiculite, wetting agent and starter nutrients were treated with postemergence applications of test chemicals formulated in the same manner. Plants ranged in height from 2 to 18 cm for postemergence treatments (1- to 4-leaf stage). Treated plants and controls were maintained in a greenhouse for 14 to 21 days, after which time all species were compared to controls and visually evaluated. Plant response ratings, summarized in Table E, are based on a scale of 0 to 100 where 0 is no effect and 100 is complete control. A dash (-) response means no test result.

wild poinsettia = format: in vivo, Euphorbia heterophylla
Description: as §1, §2

sandbur = format: in vivo, Cenchrus echinatus
Description: as §1, §2

corn = format: in vivo, Zea mays
Description: as §1, §2

[1] = Postemergence, 31 g ai/ha, scale 0 to 100
[2] = Postemergence, 62 g ai/ha, scale 0 to 100
[3] = Postemergence, 125 g ai/ha, scale 0 to 100
[4] = postemergence, 8 g ai/ha, scale 0 to 100, 0 no effect, 100 complete control
[5] = postemergence, 16 g ai/ha, scale 0 to 100, 0 no effect, 100 complete control
[6] = Postemergence, 250 g ai/ha, scale 0 to 100

Structure (SMILES) | Plant response rating, Panicum, Fall (fall panicum; [1]) | Plant response rating, Panicum, Fall (fall panicum; [2]) | Plant response rating, Panicum, Fall (fall panicum; [3]) | Plant response rating, Panicum, Fall (fall panicum; [5]) | Plant response rating, Poinsettia, Wild (wild poinsettia; [1]) | Plant response rating, Poinsettia, Wild (wild poinsettia; [2]) | Plant response rating, Poinsettia, Wild (wild poinsettia; [3]) | Plant response rating, Poinsettia, Wild (wild poinsettia; [5]) | Plant response rating, Sandbur (sandbur; [1]) | Plant response rating, Sandbur (sandbur; [2]) | Plant response rating, Sandbur (sandbur; [3]) | Plant response rating, Sandbur (sandbur; [5]) | Plant response rating, Corn (corn; [1]) | Plant response rating, Corn (corn; [2]) | Plant response rating, Corn (corn; [3]) | Plant response rating, Corn (corn; [5]) | further results
Clc1cnc(Oc2cccc(Br)c2-n2cc(Br)cn2)nc1 [Compound 65] | 5 | 0 | 15 | 0 | 20 | 20 | 40 | 20 | 0 | 0 | 0 | 0 | 10 | 10 | 10 | 0 | Plant response rating, Panicum, Fall (fall panicum; [4]): 0; Plant response rating, Poinsettia, Wild (wild poinsettia; [4]): 15; Plant response rating, Sandbur (sandbur; [4]): 0; Plant response rating, Corn (corn; [4]): 0
Fc1cnc(Oc2ccccc2-n2cc(Br)cn2)nc1 [Compound 10, 2-[2-(4-bromo-1H-pyrazol-1-yl)phenoxy]-5-fluoropyrimidine] |  |  |  |  |  |  |  |  |  |  |  |  |  |  |  |  | pest or weed control at 31 g/ha (fall panicum; Panicum dichotomiflorum, post-emergence, Postemergence, 31 g ai/ha, scale 0 to 100, read-out: Plant response rating, Panicum, Fall): 0%; pest or weed control at 62 g/ha (fall panicum; Panicum dichotomiflorum, post-emergence, Postemergence, 62 g ai/ha, scale 0 to 100, read-out: Plant response rating, Panicum, Fall): 0%; pest or weed control at 125 g/ha (fall panicum; Panicum dichotomiflorum, post-emergence, Postemergence, 125 g ai/ha, scale 0 to 100, read-out: Plant response rating, Panicum, Fall): 0%; pest or weed control at 250 g/ha (fall panicum; Panicum dichotomiflorum, post-emergence, Postemergence, 250 g ai/ha, scale 0 to 100, read-out: Plant response rating, Panicum, Fall): 0%; pest or weed control at 16 g/ha (fall panicum; Panicum dichotomiflorum, post-emergence, postemergence, 16 g ai/ha, scale 0 to 100, 0 no effect, 100 complete control, read-out: Plant response rating, Panicum, Fall): 0%; pest or weed control at 31 g/ha (wild poinsettia; Euphorbia heterophylla, post-emergence, Postemergence, 31 g ai/ha, scale 0 to 100, read-out: Plant response rating, Poinsettia, Wild): 20%; pest or weed control at 62 g/ha (wild poinsettia; Euphorbia heterophylla, post-emergence, Postemergence, 62 g ai/ha, scale 0 to 100, read-out: Plant response rating, Poinsettia, Wild): 30%; pest or weed control at 125 g/ha (wild poinsettia; Euphorbia heterophylla, post-emergence, Postemergence, 125 g ai/ha, scale 0 to 100, read-out: Plant response rating, Poinsettia, Wild): 30%; pest or weed control at 250 g/ha (wild poinsettia; Euphorbia heterophylla, post-emergence, Postemergence, 250 g ai/ha, scale 0 to 100, read-out: Plant response rating, Poinsettia, Wild): 60%; pest or weed control at 16 g/ha (wild poinsettia; Euphorbia heterophylla, post-emergence, postemergence, 16 g ai/ha, scale 0 to 100, 0 no effect, 100 complete control, read-out: Plant response rating, Poinsettia, Wild): 5%; pest or weed control at 31 g/ha (sandbur; Cenchrus echinatus, post-emergence, Postemergence, 31 g ai/ha, scale 0 to 100, read-out: Plant response rating, Sandbur): 0%; pest or weed control at 62 g/ha (sandbur; Cenchrus echinatus, post-emergence, Postemergence, 62 g ai/ha, scale 0 to 100, read-out: Plant response rating, Sandbur): 0%; pest or weed control at 125 g/ha (sandbur; Cenchrus echinatus, post-emergence, Postemergence, 125 g ai/ha, scale 0 to 100, read-out: Plant response rating, Sandbur): 0%; pest or weed control at 250 g/ha (sandbur; Cenchrus echinatus, post-emergence, Postemergence, 250 g ai/ha, scale 0 to 100, read-out: Plant response rating, Sandbur): 0%; pest or weed control at 16 g/ha (sandbur; Cenchrus echinatus, post-emergence, postemergence, 16 g ai/ha, scale 0 to 100, 0 no effect, 100 complete control, read-out: Plant response rating, Sandbur): 0%; corn plant response (injury) rating, 0-100 at 31 g/ha (corn; Zea mays, post-emergence, Postemergence, 31 g ai/ha, scale 0 to 100): 0%; corn plant response (injury) rating, 0-100 at 62 g/ha (corn; Zea mays, post-emergence, Postemergence, 62 g ai/ha, scale 0 to 100): 0%; corn plant response (injury) rating, 0-100 at 125 g/ha (corn; Zea mays, post-emergence, Postemergence, 125 g ai/ha, scale 0 to 100): 0%; corn plant response (injury) rating, 0-100 at 250 g/ha (corn; Zea mays, post-emergence, Postemergence, 250 g ai/ha, scale 0 to 100): 0%; corn plant response (injury) rating, 0-100 at 16 g/ha (corn; Zea mays, post-emergence, postemergence, 16 g ai/ha, scale 0 to 100, 0 no effect, 100 complete control): 0%
FC(F)(F)c1cnn(-c2ccccc2Oc2ncc(Cl)cn2)c1 [Compound 16] | 0 | 10 | 20 | 0 | 60 | 60 | 70 | 50 | 0 | 0 | 0 | 0 | 0 | 0 | 10 | 0 | Plant response rating, Panicum, Fall (fall panicum; [6]): 25; Plant response rating, Poinsettia, Wild (wild poinsettia; [6]): 80; Plant response rating, Sandbur (sandbur; [6]): 0; Plant response rating, Corn (corn; [6]): 15
